Measurements as given in ChEMBL document CHEMBL4270602, “Design, synthesis, docking studies and biological screening of 2-thiazolyl substituted -2,3-dihydro-1H-naphtho[1,2-e][1,3]oxazines as potent HIV-1 reverse transcriptase inhibitors” (Eur J Med Chem, 2018).

Tests used:
[1] = tested on: Human immunodeficiency virus 1; assay: Antiviral activity against Human immunodeficiency virus 1 NL4-3 infected in human CEM-GFP cells after 7 days by p24 ELISA; format: functional, organism-based; settings: Human immunodeficiency virus 1, NL4-3, CEM-GFP, 168 h
[2] = Therapeutic index, ratio of CC50 for human CEM-GFP cells to IC50 for HIV-1 NL4-3 infected in human CEM-GFP cells; format: toxicity, cell-based; settings: read-out: Ratio CC50/IC50
[3] = Cytotoxicity against human CEM-GFP cells after 48 hrs by MTT assay; format: cell-based
[4] = biological target: Human immunodeficiency virus type 1 reverse transcriptase (Human immunodeficiency virus 1, UniProt Q72547); assay: Inhibition of recombinant HIV-1 reverse transcriptase RNA-dependent DNA polymerase activity using poly(rA)/oligo(dT)16 as template/primer preincubated for 5 to 10 mins followed by template/primer addition and measured after 16 hrs by colorimetric assay
[5] = biological target: Human immunodeficiency virus type 1 reverse transcriptase (Human immunodeficiency virus 1) (UniProt Q72547); assay: Potency index, ratio of inophyllym B EC50 to compound EC50 for inhibition of recombinant HIV-1 reverse transcriptase RNA-dependent DNA polymerase activity
[6] = biological target: Human immunodeficiency virus type 1 reverse transcriptase (Human immunodeficiency virus 1) (UniProt Q72547); assay: Potency index, ratio of efavirenz EC50 to compound EC50 for inhibition of recombinant HIV-1 reverse transcriptase RNA-dependent DNA polymerase activity

Structure (SMILES) | IC50 [1] | selectivity ratio [2] | CC50 at 48 h [3] | EC50 [4] | Ratio EC50 [5] | Ratio EC50 [6]
Cc1cn([C@H]2C[C@H](N=[N+]=[N-])[C@@H](CO)O2)c(=O)[nH]c1=O [ZIDOVUDINE] | 55.7 nM | 236 | 13100 nM |  |  | 
COc1ccc2c3c(ccc2c1)OCN(c1nc(-c2ccc(F)cc2)cs1)C3 | 253 nM | 96.2 | 24300 nM | 192 nM |  | 
C[C@H]1[C@H](O)c2c(c3c(c4c(-c5ccccc5)cc(=O)oc24)OC(C)(C)C=C3)O[C@@H]1C |  |  |  | 225 nM |  | 
FC(F)(F)c1ccc(-c2csc(N3COc4ccc5ccccc5c4C3)n2)cc1 | 95.5 nM | 258 | 24700 nM | 79 nM | 3 | 
COc1ccc2c3c(ccc2c1)OCN(c1nc(-c2ccc(C(F)(F)F)cc2)cs1)C3 | 82.7 nM | 318 | 26300 nM | 66 nM |  | 2.5
O=C1Nc2ccc(Cl)cc2[C@@](C#CC2CC2)(C(F)(F)F)O1 [EFAVIRENZ] | 163 nM |  | 40500 nM |  |  | 
Fc1ccc(-c2csc(N3COc4ccc5ccccc5c4C3)n2)cc1 | 239 nM | 106 | 25300 nM | 210 nM |  | 
